Reference: PubChem BioAssay (NCI)
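Exposure lasted 48 hours, with cells grown in 96-well plates and compounds tested at five concentrations. GI50 is the concentration that inhibits growth by half. The concentration for full growth arrest is given as TGI.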

Experiments:
Test in all cases: inhibition of tumour cell growth, NCI panel, 48 h
[1] = tested on: 786-0 renal
[2] = tested on: A498 renal
[3] = tested on: A549 NSCLC
[4] = tested on: ACHN renal
[5] = tested on: BT-549 breast
[6] = tested on: CAKI-1 renal
[7] = tested on: CCRF-CEM leukemia
[8] = tested on: COLO 205 colon
[9] = tested on: DU-145 prostate
[10] = tested on: EKVX NSCLC
[11] = tested on: HCC-2998 colon
[12] = tested on: HCT-116 colon
[13] = tested on: HCT-15 colon
[14] = tested on: HL-60(TB) leukemia
[15] = tested on: HOP-62 NSCLC
[16] = tested on: HOP-92 NSCLC
[17] = tested on: HS 578T breast
[18] = tested on: IGROV1 ovarian
[19] = tested on: K-562 leukemia
[20] = tested on: KM12 colon
[21] = tested on: LOX IMVI melanoma
[22] = tested on: M14 melanoma
[23] = tested on: MALME-3M melanoma
[24] = tested on: MCF7 breast
[25] = tested on: MDA-MB-231 breast
[26] = tested on: MDA-MB-435
[27] = tested on: MOLT-4 leukemia
[28] = tested on: NCI-H226 lung
[29] = tested on: NCI-H23 lung
[30] = tested on: NCI-H460 lung
[31] = tested on: NCI-H522 lung
[32] = tested on: NCI/ADR-RES ovarian
[33] = tested on: OVCAR-3 ovarian
[34] = tested on: OVCAR-4 ovarian
[35] = tested on: OVCAR-5 ovarian
[36] = tested on: OVCAR-8 ovarian
[37] = tested on: PC-3 prostate
[38] = tested on: RPMI-8226 leukemia
[39] = tested on: RXF 393 renal
[40] = tested on: SF-268 CNS
[41] = tested on: SF-295 CNS
[42] = tested on: SF-539 CNS
[43] = tested on: SK-MEL-2 melanoma
[44] = tested on: SK-MEL-28 melanoma
[45] = tested on: SK-MEL-5 melanoma
[46] = tested on: SK-OV-3 ovarian
[47] = tested on: SN12C renal
[48] = tested on: SNB-19 CNS
[49] = tested on: SNB-75 CNS
[50] = tested on: SR leukemia
[51] = tested on: SW-620 colon
[52] = tested on: T-47D breast
[53] = tested on: TK-10 renal
[54] = tested on: UACC-257 melanoma
[55] = tested on: UACC-62 melanoma
[56] = tested on: UO-31 renal
[57] = tested on: HT29 colon
[58] = tested on: U251 CNS

`Cc1c(C(=O)N/N=C/c2ccc(Cl)cc2)nnn1-c1ccnc2c(C(F)(F)F)cccc12` was tested, and the GI50 [1] was 18.5 µM, the TGI [1] was 37.8 µM and the GI50 [2] was 15.9 µM. For the same molecule, the TGI [2] was 45.1 µM, the GI50 [3] was 2.1 µM and the TGI [3] was 4.63 µM. The GI50 [4] was 2.02 µM, the TGI [4] was 3.95 µM and the GI50 [5] was 22.9 µM. The TGI [5] was 52.3 µM, the GI50 [6] was 17.6 µM and the TGI [6] was 45.1 µM. The GI50 [7] was 14.8 µM, the TGI [7] was over 100 µM and the GI50 [8] was 1.55 µM. For the same molecule, the TGI [8] was 3.58 µM, the GI50 [9] was 4.89 µM and the TGI [9] was 20.5 µM. For the same molecule, the GI50 [10] was 25.3 µM, the TGI [10] was over 100 µM and the GI50 [11] was 9.54 µM. The TGI [11] was 53.1 µM, the GI50 [12] was 2.31 µM and the TGI [12] was 5.42 µM. The GI50 [13] was 2.88 µM, the TGI [13] was 16.3 µM and the GI50 [14] was 6.39 µM. For the same molecule, the TGI [14] was 48 µM, the GI50 [15] was 5.01 µM and the TGI [15] was 17.3 µM. It also gave a GI50 [16] of 3.62 µM, a TGI [16] of 16.2 µM and a GI50 [17] of 3.62 µM. For the same molecule, the TGI [17] was 12 µM, the GI50 [18] was 9.06 µM and the TGI [18] was 37 µM. The GI50 [19] was 5.74 µM, the TGI [19] was 42.2 µM and the GI50 [20] was 8.94 µM. The TGI [20] was 41.7 µM, the GI50 [21] was 1.69 µM and the TGI [21] was 3.18 µM. It also gave a GI50 [22] of 4.45 µM, a TGI [22] of 18.9 µM and a GI50 [23] of 1.53 µM. For the same molecule, the TGI [23] was 4.4 µM, the GI50 [24] was 2.27 µM and the TGI [24] was 5.61 µM. For the same molecule, the GI50 [25] was 2.17 µM, the TGI [25] was 6.08 µM and the GI50 [26] was 4.46 µM. It also gave a TGI [26] of 21.3 µM, a GI50 [27] of 6.39 µM and a TGI [27] of 35.3 µM. The GI50 [28] was 2.77 µM, the TGI [28] was 8.32 µM and the GI50 [29] was 13.5 µM. It also gave a TGI [29] of 35.9 µM, a GI50 [30] of 4.49 µM and a TGI [30] of 15.8 µM. The GI50 [31] was 11.8 µM, the TGI [31] was 35.2 µM and the GI50 [32] was 3.86 µM. The TGI [32] was 13.8 µM, the GI50 [33] was 12 µM and the TGI [33] was 26.4 µM. It also gave a GI50 [34] of 2.9 µM, a TGI [34] of 6.08 µM and a GI50 [35] of 15.6 µM. For the same molecule, the TGI [35] was 36.9 µM, the GI50 [36] was 2.25 µM and the TGI [36] was 4.71 µM. For the same molecule, the GI50 [37] was 3.04 µM, the TGI [37] was 11.3 µM and the GI50 [38] was 4.2 µM. The TGI [38] was 31.1 µM, the GI50 [39] was 3.06 µM and the TGI [39] was 11.2 µM. The GI50 [40] was 11.7 µM, the TGI [40] was 28.2 µM and the GI50 [41] was 1.82 µM. For the same molecule, the TGI [41] was 4.01 µM, the GI50 [42] was 12.6 µM and the TGI [42] was 25.8 µM. The GI50 [43] was 18.1 µM, the TGI [43] was 54.9 µM and the GI50 [44] was 14.4 µM. The TGI [44] was 38.5 µM, the GI50 [45] was 28.4 µM and the TGI [45] was over 100 µM. The GI50 [46] was 11.6 µM, the TGI [46] was 25.2 µM and the GI50 [47] was 3.51 µM. For the same molecule, the TGI [47] was 15.5 µM, the GI50 [48] was 12.1 µM and the TGI [48] was 30.2 µM. The GI50 [49] was 2.63 µM, the TGI [49] was 5.18 µM and the GI50 [50] was 3.6 µM. It also gave a TGI [50] of 12.3 µM, a GI50 [51] of 5.09 µM and a TGI [51] of 47.6 µM. The GI50 [52] was 7.59 µM, the TGI [52] was 28.9 µM and the GI50 [53] was 2.6 µM. It also gave a TGI [53] of 8.93 µM, a GI50 [54] of 2.89 µM and a TGI [54] of 6.91 µM. For the same molecule, the GI50 [55] was 10.6 µM, the TGI [55] was 28.4 µM and the GI50 [56] was 13 µM. The TGI [56] was 27.8 µM.
For `COc1cccc(/C=N/NC(=O)c2ccccc2Nc2ccnc(C(F)(F)F)c2)c1O`, the GI50 [1] was 0.552 µM, the TGI [1] was over 37.5 µM and the GI50 [2] was 5.11 µM. For the same molecule, the TGI [2] was over 42.8 µM, the GI50 [3] was 0.87 µM and the TGI [3] was over 34.1 µM. For the same molecule, the GI50 [4] was 0.279 µM, the TGI [4] was over 100 µM and the GI50 [5] was 0.567 µM. It also gave a TGI [5] of 54.3 µM, a GI50 [6] of 0.257 µM and a TGI [6] of 9.72 µM. For the same molecule, the GI50 [7] was 0.115 µM, the TGI [7] was 2.02 µM and the GI50 [8] was 0.353 µM. For the same molecule, the TGI [8] was over 53.8 µM, the GI50 [9] was 0.543 µM and the TGI [9] was over 47 µM. For the same molecule, the GI50 [10] was 0.517 µM, the TGI [10] was over 100 µM and the GI50 [11] was 0.29 µM. For the same molecule, the TGI [11] was 33.5 µM, the GI50 [12] was 0.311 µM and the TGI [12] was over 67.2 µM. It also gave a GI50 [13] of 0.201 µM, a TGI [13] of over 100 µM and a GI50 [14] of 0.215 µM. For the same molecule, the TGI [14] was 0.677 µM, the GI50 [15] was 0.431 µM and the TGI [15] was over 53.6 µM. The GI50 [16] was 0.342 µM, the TGI [16] was 21.5 µM and the GI50 [17] was 1.08 µM. For the same molecule, the TGI [17] was over 46.7 µM, the GI50 [57] was 4.06 µM and the TGI [57] was over 100 µM. The GI50 [18] was 0.0234 µM, the TGI [18] was 0.0745 µM and the GI50 [19] was 0.369 µM. For the same molecule, the TGI [19] was 12.3 µM, the GI50 [20] was 0.457 µM and the TGI [20] was over 56.4 µM. For the same molecule, the GI50 [21] was 0.264 µM, the TGI [21] was over 100 µM and the GI50 [22] was 0.375 µM. The TGI [22] was over 23.2 µM, the GI50 [23] was 0.964 µM and the TGI [23] was 33.6 µM. For the same molecule, the GI50 [24] was 0.313 µM, the TGI [24] was 29.5 µM and the GI50 [25] was 0.423 µM. It also gave a TGI [25] of over 100 µM, a GI50 [26] of 1.26 µM and a TGI [26] of over 100 µM. The GI50 [27] was 0.196 µM, the TGI [27] was 1.19 µM and the GI50 [28] was 0.571 µM. For the same molecule, the TGI [28] was 36.5 µM, the GI50 [29] was 0.904 µM and the TGI [29] was 46.9 µM. For the same molecule, the GI50 [30] was 0.262 µM, the TGI [30] was 8.26 µM and the GI50 [31] was 0.521 µM. The TGI [31] was 46.1 µM, the GI50 [32] was 0.512 µM and the TGI [32] was 27.9 µM. The GI50 [33] was 0.169 µM, the TGI [33] was 43.9 µM and the GI50 [34] was 0.0822 µM. The GI50 [35] was 0.701 µM, the TGI [35] was 98.3 µM and the GI50 [36] was 0.319 µM. For the same molecule, the TGI [36] was over 38 µM, the GI50 [37] was 1.47 µM and the TGI [37] was over 33.1 µM. The GI50 [38] was 0.156 µM, the TGI [38] was 0.983 µM and the GI50 [39] was 0.728 µM. The TGI [39] was 28 µM, the GI50 [40] was 0.488 µM and the TGI [40] was over 51.1 µM. For the same molecule, the GI50 [41] was 0.522 µM, the TGI [41] was 29.1 µM and the GI50 [42] was 0.583 µM. For the same molecule, the TGI [42] was 11.3 µM, the GI50 [43] was 2.13 µM and the TGI [43] was over 44 µM. The GI50 [44] was 1.48 µM, the TGI [44] was over 34.7 µM and the GI50 [45] was 0.418 µM. For the same molecule, the TGI [45] was 5.65 µM, the GI50 [46] was 0.583 µM and the TGI [46] was 31 µM. The GI50 [47] was 0.783 µM, the TGI [47] was over 73.7 µM and the GI50 [48] was 2.41 µM. The TGI [48] was over 100 µM, the GI50 [49] was 1.62 µM and the TGI [49] was over 76.5 µM. It also gave a GI50 [50] of 0.0477 µM, a TGI [50] of 0.417 µM and a GI50 [51] of 0.918 µM. For the same molecule, the TGI [51] was over 70.1 µM, the GI50 [52] was 0.498 µM and the TGI [52] was 38.8 µM. For the same molecule, the GI50 [53] was 0.392 µM, the TGI [53] was over 92.6 µM and the GI50 [58] was 0.449 µM. It also gave a TGI [58] of over 100 µM, a GI50 [54] of 0.346 µM and a TGI [54] of 5.88 µM. For the same molecule, the GI50 [55] was 0.378 µM, the TGI [55] was 10.6 µM and the GI50 [56] was 0.303 µM.
